According to US20120245137A1 (Zalicus Pharmaceuticals Ltd., priority 2009, published 2012):

Columns and labels:
Type in all cases: cell-based
[1] = target: human α1G T-type channels (Homo sapiens, UniProt O43497); experiment: T-type calcium channel block, whole cell patch clamp, α1G; conditions: HEK cells stably expressing human α1G; mainly non-inactivated protocol; values above 10,000 nM represented as 10000
Procedure: (§1) T-type calcium channel blocking activity was assayed in human embryonic kidneycells, HEK 293 (Invitrogen), stably transfected with the T-type calcium channel subunits. Briefly, cells were cultured in Dulbecco's modified eagle medium (DMEM) supplemented with 10% fetal bovine serum, 200 U/ml penicillin, and 0.2 mg/mL streptomycin at 37° C. with 5% CO2. At 85% confluency, cells were split with 0.25% trypsin/1 mM EDTA and plated at 10% confluency on glass coverslips. At 12 hours, the medium was replaced, and the cells stably transfected using a standard calcium phosphate protocol and the appropriate calcium channel cDNA's. Fresh DMEM was supplied, and the cells transferred to 28° C./5% CO2.
(§2) Standard patch-clamp techniques were employed to identify blockers of T-type currents. Briefly, previously described HEK cell lines stably expressing human α1G, α1H, and α1I T-type channels were used for all the recordings (passage #: 4-20, 37° C., 5% CO2). Whole cell patch clamp experiments were performed using an Axopatch 200B amplifier (Axon Instruments, Burlingame, Calif.) linked to a personal computer equipped with pCLAMP software. Data were analyzed using Clampfit (Axon Instruments) and SigmaPlot 4.0 (Jandel Scientific). To obtain T-type currents, plastic dishes containing semi-confluent cells were positioned on the stage of a ZEISS AXIOVERT S100 microscope after replacing the culture medium with external solution (Table 2). Whole-cell patches were obtained using pipettes (borosilicate glass with filament, O.D.: 1.5 mm, I.D.: 0.86 mm, 10 cm length), fabricated on a SUTTER P-97 puller with resistance values of ˜5 MΩ (Table 3).
(§3) T-type currents were reliably obtained by using two voltage protocols: • “non-inactivating,” and • “inactivation.”
(§4) Test compounds were dissolved in external solution, 0.1-0.01% DMSO. After ˜10 minutes rest, they were applied by gravity close to the cell using a WPI microfil tubing. The “non-inactivated” pre-pulse was used to examine the resting block of a compound. The “inactivated” protocol was employed to study voltage-dependent block.

[2] = target: human α1H T-type channels (Homo sapiens, UniProt O95180); experiment: T-type calcium channel block, whole cell patch clamp, α1H; conditions: HEK cells stably expressing human α1H; mainly non-inactivated protocol; values above 10,000 nM represented as 10000
Sequence of human α1H T-type channels (O95180 whole entry): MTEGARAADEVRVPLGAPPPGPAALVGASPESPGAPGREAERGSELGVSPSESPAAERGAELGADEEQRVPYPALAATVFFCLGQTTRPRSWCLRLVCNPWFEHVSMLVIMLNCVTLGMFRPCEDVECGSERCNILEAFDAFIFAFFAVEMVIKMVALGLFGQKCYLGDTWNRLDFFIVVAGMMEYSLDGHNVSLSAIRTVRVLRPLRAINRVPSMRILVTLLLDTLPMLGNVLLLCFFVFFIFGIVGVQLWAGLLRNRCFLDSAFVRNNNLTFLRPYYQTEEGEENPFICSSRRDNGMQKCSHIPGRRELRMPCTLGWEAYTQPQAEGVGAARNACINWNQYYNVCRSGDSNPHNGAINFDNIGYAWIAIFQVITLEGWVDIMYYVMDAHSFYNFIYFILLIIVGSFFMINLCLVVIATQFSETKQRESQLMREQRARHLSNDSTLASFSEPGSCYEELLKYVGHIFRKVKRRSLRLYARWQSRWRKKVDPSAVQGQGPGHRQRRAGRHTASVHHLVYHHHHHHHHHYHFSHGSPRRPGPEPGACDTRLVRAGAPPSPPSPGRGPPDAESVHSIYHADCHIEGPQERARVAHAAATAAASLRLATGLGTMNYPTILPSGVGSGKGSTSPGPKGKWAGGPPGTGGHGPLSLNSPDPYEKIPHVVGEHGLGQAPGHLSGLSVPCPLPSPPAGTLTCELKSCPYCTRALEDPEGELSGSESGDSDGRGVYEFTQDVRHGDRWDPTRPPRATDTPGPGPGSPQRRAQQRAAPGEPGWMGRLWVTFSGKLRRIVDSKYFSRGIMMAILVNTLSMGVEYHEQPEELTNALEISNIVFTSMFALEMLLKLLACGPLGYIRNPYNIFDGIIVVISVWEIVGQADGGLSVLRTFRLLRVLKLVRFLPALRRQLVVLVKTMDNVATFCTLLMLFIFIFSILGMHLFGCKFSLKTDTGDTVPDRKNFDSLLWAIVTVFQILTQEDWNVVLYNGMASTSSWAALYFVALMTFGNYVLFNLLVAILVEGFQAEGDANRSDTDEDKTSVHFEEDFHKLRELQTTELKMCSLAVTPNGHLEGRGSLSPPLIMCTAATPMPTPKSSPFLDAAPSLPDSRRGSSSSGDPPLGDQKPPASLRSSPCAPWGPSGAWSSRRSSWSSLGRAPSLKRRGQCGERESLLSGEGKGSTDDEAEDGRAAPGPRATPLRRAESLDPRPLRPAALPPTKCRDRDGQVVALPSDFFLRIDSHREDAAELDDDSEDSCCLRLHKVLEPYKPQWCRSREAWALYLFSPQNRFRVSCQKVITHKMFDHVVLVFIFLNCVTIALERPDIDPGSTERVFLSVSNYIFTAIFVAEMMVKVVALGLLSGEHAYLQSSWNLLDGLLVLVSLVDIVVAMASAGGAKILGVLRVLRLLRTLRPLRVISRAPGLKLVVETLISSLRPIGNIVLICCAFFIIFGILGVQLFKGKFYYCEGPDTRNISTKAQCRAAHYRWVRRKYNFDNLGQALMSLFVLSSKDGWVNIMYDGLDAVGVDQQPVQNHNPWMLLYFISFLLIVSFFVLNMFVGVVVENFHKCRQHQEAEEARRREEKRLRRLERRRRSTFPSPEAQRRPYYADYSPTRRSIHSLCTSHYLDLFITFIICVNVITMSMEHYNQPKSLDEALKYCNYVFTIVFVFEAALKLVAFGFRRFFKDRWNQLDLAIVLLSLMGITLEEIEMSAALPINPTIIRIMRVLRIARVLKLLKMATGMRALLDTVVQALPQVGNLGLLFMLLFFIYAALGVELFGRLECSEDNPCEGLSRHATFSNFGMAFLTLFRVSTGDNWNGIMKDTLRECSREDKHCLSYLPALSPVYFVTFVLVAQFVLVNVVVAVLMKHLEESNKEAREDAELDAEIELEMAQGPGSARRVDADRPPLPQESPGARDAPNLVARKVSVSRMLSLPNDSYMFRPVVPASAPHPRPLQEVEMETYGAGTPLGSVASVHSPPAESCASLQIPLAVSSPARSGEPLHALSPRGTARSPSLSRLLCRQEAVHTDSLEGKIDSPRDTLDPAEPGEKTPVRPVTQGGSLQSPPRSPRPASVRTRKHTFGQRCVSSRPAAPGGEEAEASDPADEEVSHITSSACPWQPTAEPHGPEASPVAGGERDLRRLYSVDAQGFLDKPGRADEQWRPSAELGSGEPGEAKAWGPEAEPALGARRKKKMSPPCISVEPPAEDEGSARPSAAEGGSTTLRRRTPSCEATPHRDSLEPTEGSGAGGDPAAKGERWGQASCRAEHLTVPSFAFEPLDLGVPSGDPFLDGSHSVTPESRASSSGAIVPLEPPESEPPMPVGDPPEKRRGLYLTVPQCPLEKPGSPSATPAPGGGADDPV
Procedure: as §1, §2, §3, §4

[3] = target: N-type calcium channel subunits (α1B, α2δ, and β3a) (Homo sapiens, UniProt Q00975); experiment: Block of Cav2.2 channel, whole cell voltage clamp, manual and PatchXpress; conditions: Table 5; table follows Assay Example 3 (whole cell voltage clamp / PatchXpress); assay not given
In short: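 Percent block taken as current amplitude ratio with versus without compound, applied in rising doses; IC50 fitted where one cell received multiple doses. Protocol: 50 ms pulses to +20 mV at 0.067 Hz from […] or −90 mV holding; P/n leak subtraction, no junction-potential correction; manual and PatchXpress recordings.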

Sequence of human α1G T-type channels (O43497 whole entry): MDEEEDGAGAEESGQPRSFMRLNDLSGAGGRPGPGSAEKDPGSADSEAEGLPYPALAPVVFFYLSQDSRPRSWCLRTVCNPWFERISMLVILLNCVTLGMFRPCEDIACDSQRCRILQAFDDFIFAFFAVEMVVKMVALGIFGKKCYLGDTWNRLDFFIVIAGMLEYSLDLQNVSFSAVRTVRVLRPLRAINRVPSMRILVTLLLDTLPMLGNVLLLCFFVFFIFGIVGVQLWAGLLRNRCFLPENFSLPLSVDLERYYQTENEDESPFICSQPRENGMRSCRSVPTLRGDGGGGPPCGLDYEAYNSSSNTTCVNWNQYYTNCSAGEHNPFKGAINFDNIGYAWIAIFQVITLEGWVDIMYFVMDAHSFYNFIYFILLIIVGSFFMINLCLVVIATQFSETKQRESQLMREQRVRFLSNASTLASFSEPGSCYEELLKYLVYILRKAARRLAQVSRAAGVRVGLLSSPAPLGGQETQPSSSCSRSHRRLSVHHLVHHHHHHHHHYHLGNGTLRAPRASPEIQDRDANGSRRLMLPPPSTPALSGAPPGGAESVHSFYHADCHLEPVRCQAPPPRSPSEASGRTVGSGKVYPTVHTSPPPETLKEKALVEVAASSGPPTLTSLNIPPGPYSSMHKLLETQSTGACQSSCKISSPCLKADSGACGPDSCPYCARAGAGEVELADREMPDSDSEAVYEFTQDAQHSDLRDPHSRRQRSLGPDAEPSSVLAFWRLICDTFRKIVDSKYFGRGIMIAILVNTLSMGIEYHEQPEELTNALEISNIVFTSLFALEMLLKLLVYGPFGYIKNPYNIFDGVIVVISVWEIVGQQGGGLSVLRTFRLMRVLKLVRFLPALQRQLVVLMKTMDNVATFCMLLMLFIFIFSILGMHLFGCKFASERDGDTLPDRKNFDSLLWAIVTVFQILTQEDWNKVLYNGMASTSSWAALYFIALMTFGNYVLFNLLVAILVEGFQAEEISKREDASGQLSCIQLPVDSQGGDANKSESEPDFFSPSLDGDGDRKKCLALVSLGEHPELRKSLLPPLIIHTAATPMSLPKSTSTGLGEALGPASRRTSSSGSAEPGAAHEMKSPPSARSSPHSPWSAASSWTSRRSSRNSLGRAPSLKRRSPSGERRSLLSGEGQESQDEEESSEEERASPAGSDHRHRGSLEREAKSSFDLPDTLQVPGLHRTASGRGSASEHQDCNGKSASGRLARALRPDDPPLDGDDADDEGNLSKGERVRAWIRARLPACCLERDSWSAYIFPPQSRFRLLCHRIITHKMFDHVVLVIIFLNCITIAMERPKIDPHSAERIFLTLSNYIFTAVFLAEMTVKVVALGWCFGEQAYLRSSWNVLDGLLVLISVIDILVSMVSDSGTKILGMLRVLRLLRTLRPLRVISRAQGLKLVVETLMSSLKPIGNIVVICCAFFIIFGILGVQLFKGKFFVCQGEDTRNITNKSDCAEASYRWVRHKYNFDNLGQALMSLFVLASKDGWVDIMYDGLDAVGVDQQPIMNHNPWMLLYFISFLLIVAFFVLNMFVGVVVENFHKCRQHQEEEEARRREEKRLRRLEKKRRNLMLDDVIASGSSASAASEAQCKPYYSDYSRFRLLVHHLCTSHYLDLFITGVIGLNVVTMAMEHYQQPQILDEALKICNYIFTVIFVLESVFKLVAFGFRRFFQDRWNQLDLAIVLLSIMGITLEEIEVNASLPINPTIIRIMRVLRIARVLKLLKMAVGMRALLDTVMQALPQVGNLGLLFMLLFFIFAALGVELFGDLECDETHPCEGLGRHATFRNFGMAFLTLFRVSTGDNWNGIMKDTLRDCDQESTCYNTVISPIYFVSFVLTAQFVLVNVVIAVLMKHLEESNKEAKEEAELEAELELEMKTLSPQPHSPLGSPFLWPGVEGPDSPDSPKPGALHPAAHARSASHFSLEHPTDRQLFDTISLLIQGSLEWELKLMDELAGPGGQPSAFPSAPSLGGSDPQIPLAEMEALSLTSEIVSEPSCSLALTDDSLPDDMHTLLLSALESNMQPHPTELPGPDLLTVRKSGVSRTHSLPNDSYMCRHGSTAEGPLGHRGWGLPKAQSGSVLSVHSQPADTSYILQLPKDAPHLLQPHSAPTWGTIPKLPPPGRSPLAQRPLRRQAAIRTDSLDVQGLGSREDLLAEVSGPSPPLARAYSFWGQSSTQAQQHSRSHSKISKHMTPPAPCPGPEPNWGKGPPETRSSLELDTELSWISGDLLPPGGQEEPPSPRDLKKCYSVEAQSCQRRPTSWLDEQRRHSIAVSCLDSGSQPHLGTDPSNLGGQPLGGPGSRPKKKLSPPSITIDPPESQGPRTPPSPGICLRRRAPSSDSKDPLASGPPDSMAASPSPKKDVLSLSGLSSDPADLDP

| Compound | IC50 [1] | IC50 [2] | IC50 [3] |
| --- | --- | --- | --- |
| 1-(trifluoromethyl)-N-((1R,4R)-4- ((3- (trifluoromethyl)phenylsulfonyl) methyl)cyclohexyl) cyclobutanecarboxamide [Compound 109] | > 10000 nM | > 10000 nM | – |
| CCN(CC)C(=O)CN[C@H]1CC[C@@H](S(=O)(=O)c2cccc(C(F)(F)F)c2)CC1 [Compound 51, N,N-diethyl-2-((1S,4S)-4-(3-(trifluoromethyl)phenylsulfonyl)cyclohexylamino)acetamide] | – | > 10000 nM | 1510 nM |
| O=C(N[C@H]1CC[C@H](S(=O)(=O)c2cccc(C(F)(F)F)c2)CC1)c1cc(C(F)(F)F)ccn1 [Compound 61, 4-(trifluoromethyl)-N-((1R,4R)-4-(3-(trifluoromethyl)phenylsulfonyl)cyclohexyl)picolinamide] | – | > 10000 nM | 1650 nM |
| Cn1cc(C(=O)N[C@H]2CC[C@H](S(=O)(=O)c3cccc(C(F)(F)F)c3)CC2)c(C(F)(F)F)n1 [Compound 64, 1-methyl-3-(trifluoromethyl)-N-((1R,4R)-4-(3-(trifluoromethyl)phenylsulfonyl)cyclohexyl)-1H-pyrazole-4-carboxamide] | – | > 10000 nM | 550 nM |
| O=C(CN[C@H]1CC[C@H](S(=O)(=O)c2cccc(C(F)(F)F)c2)CC1)NCC(F)(F)F [Compound 68, N-(2,2,2-trifluoroethyl)-2-((1R,4R)-4-(3-(trifluoromethyl)phenylsulfonyl)cyclohexylamino)acetamide] | – | > 10000 nM | 1720 nM |
| CC1(NC(=O)c2cc(F)cc(Cl)c2)CCC(F)(S(=O)(=O)c2cccc(C(F)(F)F)c2)CC1 (centres unmarked) [Compound 93, 3-chloro-5-fluoro-N-(4-fluoro-1-methyl-4-(3-(trifluoromethyl)phenylsulfonyl)cyclohexyl)benzamide] | – | > 10000 nM | 240 nM |
| O=C(N[C@H]1CC[C@H](CS(=O)(=O)c2cccc(C(F)(F)F)c2)CC1)c1cc(F)cc(Cl)c1 [Compound 101, 3-chloro-5-fluoro-N-((1R,4R)-4-((3-(trifluoromethyl)phenylsulfonyl)methyl)cyclohexyl)benzamide] | 3670 nM | 3500 nM | – |
| O=C(N[C@H]1CC[C@H](CS(=O)(=O)c2cccc(C(F)(F)F)c2)CC1)C1CCOCC1 [Compound 105, N-((1R,4R)-4-((3-(trifluoromethyl)phenylsulfonyl)methyl)cyclohexyl)tetrahydro-2H-pyran-4-carboxamide] | > 10000 nM | 2480 nM | – |
| O=C(N[C@H]1CC[C@H](CS(=O)(=O)c2cccc(C(F)(F)F)c2)CC1)c1cc(F)cc(C(F)(F)F)c1 [Compound 107, 3-fluoro-5-(trifluoromethyl)-N-((1R,4R)-4-((3-(trifluoromethyl)phenylsulfonyl)methyl)cyclohexyl)benzamide] | – | > 10000 nM | 2710 nM |
| O=C(N[C@H]1CC[C@H](CS(=O)(=O)c2cccc(C(F)(F)F)c2)CC1)c1cc(C(F)(F)F)n[nH]1 [Compound 112, 3-(trifluoromethyl)-N-((lR,4R)-4-((3-(trifluoromethyI)phenylsulfonyl)methyl)cyclohexyl)-1H-pyrazole-5-carboxamide] | > 10000 nM | 8360 nM | – |
| O=C(CN[C@H]1CC[C@H](CS(=O)(=O)c2cccc(C(F)(F)F)c2)CC1)Nc1ccccn1 [Compound 120, N-(pyridin-2-yl)-2-((1R,4R)-4-((3-(trifluoromethyl)phenylsulfonyl)methyl)cyclohexylamino)acetamide] | – | > 10000 nM | 580 nM |
| CS(=O)(=O)c1ccc(C(=O)N[C@H]2CC[C@H](S(=O)(=O)c3cccc(C(F)(F)F)c3)CC2)c(Cl)c1 [Compound 122, 2-chloro-4-(methylsulfonyl)-N-((1R,4R)-4-(3-(trifluoromethyl)phenylsulfonyl)cyclohexyl)benzamide] | 690 nM | 990 nM | – |
| CC(C)(C)S(=O)(=O)c1ccsc1C(=O)N[C@H]1CC[C@H](CS(=O)(=O)c2cccc(C(F)(F)F)c2)CC1 [Compound 178, 3-(tert-butylsulfonyl)-N-((1R.4R)-4-((3-(trifluoromethyl)phenylsulfonyl)methyl)cyclohexyl)thiophene-2-carboxamide] | – | > 10000 nM | 250 nM |
| CC(C)(C(=O)N[C@H]1CC[C@@](F)(S(=O)(=O)c2cc(F)cc(C(F)(F)F)c2)CC1)S(=O)(=O)c1cccc(C(F)(F)F)c1 [Compound 292, N-((1S,4S)-4-fluoro-4-(3-fluoro-5-(trifluoromethyl)phenylsulfonyl)cyclohexyl)-2-methyl-2-(3-(trifluoromethyl)phenylsulfonyl) propanamide] | – | > 10000 nM | 130 nM |
| Cc1nc(S(=O)(=O)N[C@H]2CC[C@@](F)(S(=O)(=O)c3cccc(C(F)(F)F)c3)CC2)cn1C [Compound 294] | – | > 10000 nM | 3760 nM |
| CC1(NC(=O)c2ccc(OC(F)(F)F)cc2)CCC(S(=O)(=O)c2cccc(C(F)(F)F)c2)CC1 (centres unmarked) [Compound 315, N-(1-methyl-4-(3-(trifluoromethyl)phenylsulfonyl)cyclohexyl)-4-(trifluoromethoxy)benzamide] | – | > 10000 nM | 1230 nM |
| Cn1nc(C(F)(F)F)cc1C(=O)N[C@H]1CC[C@@H](S(=O)(=O)c2cc(F)cc(C(F)(F)F)c2)CC1 [Compound 321, N-((1S,4S)-4-(3-fluoro-5-(trifluoromethyl)phenylsulfonyl)cyclohexyl)-1-methyl-3-(trifluoromethyl)-1Hpyrazole-5-carboxamide] | – | > 10000 nM | 1920 nM |
| O=C(N[C@H]1CC[C@@](F)(S(=O)(=O)c2cc(F)cc(C(F)(F)F)c2)CC1)c1cc(F)cc(Cl)c1 [Compound 326, 3-chloro-5-fluoro-N-((1S,4S)-4-fluoro-4-(3-fluoro-5-(trifluoromethyl)phenylsulfonyl)cyclohexyl) benzamide] | – | 1480 nM | 330 nM |
| O=C(NC[C@H]1C[C@H](S(=O)(=O)c2cccc(C(F)(F)F)c2)C1)c1ccnc(C(F)(F)F)n1 [Compound 362, 2-(trifluoromethyl)-N-(((1R,3R)-3-(3-(trifluoromethyl)phenylsulfonyl)cyclobutyl)methyl)pyrimidine-4-carboxamide] | – | > 10000 nM | 370 nM |
| COc1cc(C(=O)NC[C@H]2C[C@H](S(=O)(=O)c3cccc(C(F)(F)F)c3)C2)cc(Cl)n1 [Compound 363, 2-chloro-6-methoxy-N-(((1R,3R)-3-(3-(trifluoromethyl)phenylsulfonyl)cyclobutyl)methyl)isonicotinamide] | – | > 10000 nM | 310 nM |
| COc1cc(C(=O)NC[C@H]2C[C@@H](S(=O)(=O)c3cccc(C(F)(F)F)c3)C2)cc(Cl)n1 [Compound 380, 2-chloro-6-methoxy-N-(((1S,3S)-3-(3-(trifluoromethyl)phenylsulfonyl)cyclobutyl)methyl)isonicotinamide] | – | > 10000 nM | 1470 nM |
| O=C(NC[C@H]1C[C@@H](S(=O)(=O)c2cccc(C(F)(F)F)c2)C1)c1cc(F)cc(Cl)c1 [Compound 381, 3-chloro-5-fluoro-N-(((1S,3S)-3-(3-(trifluoromethyl)phenylsulfonyl)cyclobutyl)methyl)benzamide] | – | > 10000 nM | 590 nM |
| O=C(Nc1ccc(Oc2ccc(Cl)cc2)cc1)[C@H]1C[C@H](S(=O)(=O)c2cccc(C(F)(F)F)c2)C1 [Compound 404, (1R,3R)-N-(4-(4-chlorophenoxy)phenyl)-3-(3-(trifluoromethyl)phenylsulfonyl)cyclobutane carboxamide] | – | > 10000 nM | 3330 nM |
| O=C(CN[C@H]1C[C@H](S(=O)(=O)c2cccc(C(F)(F)F)c2)C1)NC1CCC(F)(F)CC1 [Compound 428, N-(4,4-ditluorocyclohexyl)-2-((1R,3R)-3-(3-(trifluoromethyl)phenylsulfonyl)cyclobutylamino) acetamide] | – | > 10000 nM | 960 nM |
| CC([C@H]1C[C@H](NC(=O)c2ccc(F)c(C(F)(F)F)c2)C1)S(=O)(=O)c1cccc(C(F)(F)F)c1 (stereo partly drawn) [Compound 433, 4-fluoro-3-(trifluoromethyl)-N-((1R,3R)-3-((R)-1-(3-(trifluoromethyl)phenylsulfonyl)ethyl)cyclobutyl)benzamide] | – | > 10000 nM | 220 nM |
